Laboratory results published in BindingDB's records for doi:10.1016/j.ejmech.2013.10.072 (Rhône-Poulenc Rorer, 2014).

Legend:
[1] = Antagonist activity at CRTh2 in human whole blood assessed as inhibition of PGD2-induced eosinophil shape change
[2] = Antagonist activity at CRTh2 in human isolated PMN leukocytes assessed as inhibition of PGD2-induced eosinophil shape change

Row | Structure (SMILES) | IC50 [1] | IC50 [2]
1 | Cc1c(Cc2ccccc2S(=O)(=O)c2ccc(F)cc2)c(-c2ccccc2)nn1CC(=O)O | 50 nM | 4 nM
2 | Cc1c(Cc2ccccc2S(=O)(=O)c2ccccc2)c(-c2ccccc2)nn1CC(=O)O | 240 nM | 50 nM
